Reference: ChEMBL document CHEMBL3045709, “Increasing resistance against Phytophthora citrophthora in tangelo Nova fruits by modulating polymethoxyflavones levels” (J Agric Food Chem, 2002)
pIC50: −log10 of the molar value. The source made the active and inactive calls. The rule behind the calls is not given here.

Columns and labels:
[1] = tested on: Citrus; assay: Induction of resistance against Phytophthora citrophthora in Citrus (tangelo Nova) fruits assessed as increase of polymethoxyflavones levels at 20 to 250 ppm up to 160 days; format: functional
[2] = tested on: Citrus; assay: Induction of resistance against Phytophthora citrophthora in Citrus (tangelo Nova) fruits assessed as increase of polymethoxyflavones levels at 20 to 250 ppm after 7 days; format: functional
[3] = tested on: Phytophthora citrophthora; assay: Antifungal activity against Phytophthora citrophthora after 100 hr; format: functional, organism-based
[4] = tested on: Phytophthora citrophthora; assay: Antifungal activity against Phytophthora citrophthora assessed as inhibition of radical growth at 0.1 to 1 g/L up to 200 hr; format: functional, organism-based
[5] = tested on: Phytophthora citrophthora; assay: Antifungal activity against Phytophthora citrophthora in tangelo Nova fruits assessed as inhibition of fungal growth at 100 ppm after 3 to 5 days; format: functional; settings: read-out: GI
[6] = tested on: Phytophthora citrophthora; assay: Antifungal activity against Phytophthora citrophthora assessed as inhibition of radical growth at 0.05 to 0.4 g/L up to 200 hr; format: functional, organism-based
[7] = tested on: Phytophthora citrophthora; assay: Antifungal activity against Phytophthora citrophthora assessed as inhibition of radical growth at 0.2 to 0.6 g/L up to 200 hr; format: functional, organism-based
[8] = tested on: Penicillium digitatum; assay: Antifungal activity against Penicillium digitatum; format: functional, organism-based

Row | SMILES | Activity [1] | Activity [2] [%] | pIC50 [3] | growth inhibition (GI) [4] | inhibition of growth at 100 ppm [5] [%] | growth inhibition (GI) [6] | growth inhibition (GI) [7] | pIC50 [8]
1 | COc1ccc(-c2oc3c(OC)c(OC)c(OC)c(OC)c3c(=O)c2OC)cc1OC [3,5,6,7,8,3',4'-HEPTAMETHOXYFLAVONE] | 43% | 29 | 2.98 | Active |  |  |  | 
2 | c1ccc(CNc2ncnc3[nH]cnc23)cc1 [6-BENZYLAMINOPURINE] |  |  |  |  | 60 |  |  | 
3 | COc1ccc(-c2cc(=O)c3c(OC)c(OC)c(OC)c(OC)c3o2)cc1OC [NOBILETIN] | Active | 20 | 3.23 |  |  | Active |  | 
4 | COc1ccc(-c2cc(=O)c3c(OC)c(OC)c(OC)cc3o2)cc1OC [SINENSETIN] | Active | 20 | 3.04 |  |  |  | Active | 
5 | COc1ccc(-c2cc(=O)c3c(OC)c(OC)c(OC)c(OC)c3o2)cc1 [TANGERETIN] | Active | 12 | 2.76 | Active |  |  |  | 2.19
